This assay has as its target T1, human insulin receptor (Ins-R) (Homo sapiens, UniProt P06213).
T1 construct: encoding the amino acid region 919-1343 of the intra-cytoplasmic kinase domain of the human insulin receptor; made in house; host or cells: baculovirus (Bac-to-Bac)
Nature of the assay: Ins-R tyrosine kinase assay, GST-Ins-R. It counts as biochemical. From the text:
The inhibition of IGF-1R and Ins-R can be determined as follows: The baculovirus donor vector pfbgx3IGFIRcd is used to generate a recombinant baculovirus that expresses the amino acid region 950-1337 of the mature peptide cytoplasmic domain of the human IGF-IR. To generate the cDNA fragment encoding the amino acid region 919-1343 of the intra-cytoplasmic kinase domain of the human insulin receptor, pC5hInsR is used. The fragments of the human IGF-IR and Ins-R are cloned, expressed and small-scale purified as a factor Xa-cleavable glutathione-S-transferase (GST)-fusion protein using the Bac-to-Bac™ system (GIBCO BRL) of recombinant baculovirus generation. Virus containing media is collected from the transfected cell culture and used for infection to increase its titer. Virus containing media obtained after two rounds of infection is used for large-scale protein expression. Cell extracts are prepared and loaded onto a glutathione-Sepharose (Pharmacia) column. After washing, the GST-tagged proteins are then eluted with a glutathione-containing buffer. Purified protein is stored at −70° C. in elution buffer. Tyrosine protein kinase assays with purified GST-IGF-1R and GST-ins-R are carried in a final volume of 30 μl containing 20 mM Tris-HCl, pH 7.6, 10 mM MgCl2, 0.01 mM Na3VO4, 1% DMSO, 1 mM DTT, 3 μg/ml poly(Glu,Tyr) 4:1 and 10 μM ATP (γ-[^33P]-ATP 0.1 μCi). The assay is performed in 96-well plates at ambient temperature for 20 min and terminated by addition of 25 μl 0.05 M EDTA pH 7.0. An aliquot of 40 μl is spotted with a multichannel dispenser on Whatman P81 membranes mounted in a Millipore Microtiter filter manifold connected to a low vacuum source. After elimination of liquid, the membrane is transferred to a sequence of 4 washing baths containing 0.5% H3PO4 and one with EtOH (shaking incubation for 10 min each), dried, mounted onto a Hewlett Packard TopCount manifold added 10 μl Microscint® and counted. Compounds of formula (I) show up to 90% inhibition of Ins-R at 10,000 nM, preferably between 60-90% inhibition. The inhibition of Tek can be determined as follows: The procedure of the expression, purification and assay these kinases has been described. Fabbro et al., Pharmacol. Ther. 82(2-3) 293-301 (1999). In brief, the glutathione S-transferase (GST) gene from the pAcG1 vector (Pharmingen) is excised with EcoRV and EcoRI and inserted into the cloning site of the Fast-Bac baculoviral vector (GIBCO) creating a 5530 bp vector with N-terminal cloning sites derived from the pAcG1 fusion vector (FBG0). The C-terminal cloning site may be any cloning site (from the Fast-Bac vector) downstream of the N-terminal cloning site used. N-terminally GST-fused (pAcG1, Pharmingen) KDR, Flt-1, Flk-1, Tek and PDGFR-β kinase domains are obtained from ProQinase, Freiburg, Germany. Tek is recloned into the FBG1 vector by EcoRI excision and ligation into EcoRI digested FBG1 (FBG1-Tek). The coding sequences for the whole cytoplasmic domain of c-Kit (aa 544-976) and c-Fms (aa 538-972) are amplified by PCR from human uterus and from human bone marrow cDNA libraries (Clontech), respectively. The amplified DNA fragments are fused to GST by cloning them into FBG1 as BamHI-EcoRI insertions, to yield FBG1-c-Kit and FBG1-c-Fms. Tek is recloned into the FBG0 transfer vector by EcoRI excision and ligation into EcoRI digested FBG0 (FBG-Tie2/Tek). FGFR-1 and c-met kinase domains are obtained by PCR from human A431 cells. N-terminal primers contain an overhanging EcoRI site, while C-terminal primers contain a XhoI site to aid cloning into the transfer vectors. After digestion of both the PCR fragments and FBG0 the cleavage products are gel-purified and ligated together to form the kinase constructs (FBG-Met, FBG-FGFR-1).

Setting [1] is: Table 5, read-out: Ins-R, IC50 class.

Where two headings read alike, the source gives them in different places.

T1 sequence (P06213 958-1382 limits assumed): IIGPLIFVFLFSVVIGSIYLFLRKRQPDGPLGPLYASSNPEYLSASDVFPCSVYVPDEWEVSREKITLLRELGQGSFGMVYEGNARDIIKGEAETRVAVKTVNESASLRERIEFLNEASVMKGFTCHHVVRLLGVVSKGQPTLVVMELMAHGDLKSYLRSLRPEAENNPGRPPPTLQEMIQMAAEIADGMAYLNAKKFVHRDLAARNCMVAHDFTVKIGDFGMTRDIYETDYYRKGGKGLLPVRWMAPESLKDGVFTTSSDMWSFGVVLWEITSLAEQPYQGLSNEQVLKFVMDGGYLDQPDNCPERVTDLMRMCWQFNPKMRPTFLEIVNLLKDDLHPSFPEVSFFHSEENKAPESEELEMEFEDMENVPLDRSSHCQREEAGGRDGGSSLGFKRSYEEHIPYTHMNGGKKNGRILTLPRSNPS

Consider `CN1CCN(c2ccc(-c3cnn4c(N)c(-c5cccc(O)c5)cnc34)cc2)CC1` [Example 1, 3-{7-Amino-3-[4-(4-methyl-piperazin-1-yl)-phenyl]-pyrazolo[1,5-a]pyrimidin-6-yl}-phenol], for which the IC50 (Table 4, read-out: Ins-R, activity (IC50 for kinase inhibition)) is less than 10 µM.
For the molecule `Cc1nc2c(-c3cccc(N4CCN(C)CC4)c3)cnn2c(N)c1-c1cccc(Cl)c1` [Example 72, 6-(3-Chloro-phenyl)-5-methyl-3-[3-(4-methyl-piperazin-1-yl)-phenyl]-pyrazolo[1,5-a]pyrimidin-7-ylamine], under setting [1], the IC50 fell in the range of 1 to 10 µM.
Still for that read-out and setting: as for `Cc1nc2c(-c3ccc(N4CCN(C)CC4)cc3)cnn2c(N)c1-c1cccc(Cl)c1` [Example 73, 6-(3-Chloro-phenyl)-5-methyl-3-[4-(4-methyl-piperazin-1-yl)-phenyl]-pyrazolo[1,5-a]pyrimidin-7-ylamine], the figure is greater than 10 µM.
In the case of `COc1cc(N2CCN(C)CC2)ccc1-c1cnn2c(N)c(-c3cccc(O)c3)cnc12` [Example 76, 3-{7-Amino-3-[2-methoxy-4-(4-methyl-piperazin-1-yl)-phenyl]-pyrazolo[1,5-a]pyrimidin-6-yl}-phenol], the IC50 under setting [1] is 1 to 10 µM.
Still for that read-out and setting: as for `Cc1nc2c(-c3cccc(N4CCN(C)CC4)c3)cnn2c(N)c1-c1ccc(F)cc1` [Example 80, 6-(4-Fluoro-phenyl)-5-methyl-3-[3-(4-methyl-piperazin-1-yl)-phenyl]-pyrazolo[1,5-a]pyrimidin-7-ylamine], the figure is greater than 10 µM; as for `Cc1nc2c(-c3ccc(N4CCN(C)CC4)cc3)cnn2c(N)c1-c1ccc(F)c(Cl)c1` [Example 83, 6-(3-Chloro-4-fluoro-phenyl)-5-methyl-3-[4-(4-methyl-piperazin-1-yl)-phenyl]-pyrazolo[1,5-a]pyrimidin-7-ylamine], greater than 10 µM.
Still for that read-out and setting: as for `COc1ccc(-c2cnn3c(N)c(-c4cccc(Cl)c4)c(C)nc23)cc1` [Example 88, 6-(3-Chloro-phenyl)-3-(4-methoxy-phenyl)-5-methyl-pyrazolo[1,5-a]pyrimidin-7-ylamine], the figure is greater than 10 µM; as for `Cc1nc2c(-c3cccc(N4CCN(CCO)CC4)c3)cnn2c(N)c1-c1cccc(Cl)c1` [Example 90, 2-(4-{3-[7-Amino-6-(3-chloro-phenyl)-5-methyl-pyrazolo[1,5-a]pyrimidin-3-yl]-phenyl}-piperazin-1-yl)-ethanol], greater than 10 µM.

Values taken from US20090099167A1, “Organic compounds” (Novartis Institutes for Biomedical Research, priority 2004, published 2009).
